Data reported in US20250161216A1, “CATIONIC LIPID ANALOGUES, COMPOSITIONS AND USES THEREOF” (GUANGZHOU LIDE BIOMEDICINE TECHNOLOGY CO., LTD., priority 2022, published 2025).

Tests used:
[1] = Characterization of the lipid nanoparticles prepared in Example 6; format: physicochemical; details: cationic lipid analogue:cholesterol:DSPC:DMG-PEG 50:38.5:10:1.5
Source text: The drug-loaded nanoparticle included a cationic lipid analogue, cholesterol, distearoylphosphatidylcholine (DSPC), and 1,2-dimyristoyl-rac-glycerol-3-methoxypolyethylene glycol (DMG-PEG), • wherein a molar ratio of the cationic lipid analogue:cholesterol:DSPC:DMG-PEG was 50:38.5:10:1.5.
In the drug-loaded nanoparticle, a mass ratio of the cationic lipid analogue to the nucleic acid drug, such as mRNA or siRNA, etc., was 11:1.
A cationic lipid analogue, cholesterol, DSPC, and DMG-PEG were dissolved in an ethanol solution, and mixed in the above-mentioned molar ratio to obtain an organic phase. Then, an mRNA nucleic acid drug at a corresponding mass ratio was dissolved in a sodium acetate buffer solution (25 mM, pH=3.0) to obtain an aqueous phase, so that a volume ratio of the aqueous phase to the organic phase was 3:1. Then, the aqueous phase was quickly added to the organic phase and mixed evenly, and the mixture was allowed to stand for 10 minutes. After that, the mixture was put into a 1000 Da dialysis bag, and dialyzed in a 1×PBS solution at 4° C. for 2 hours to obtain the nanoparticle that can be directly used for injection.

[2] = system: C57BL/6 mice; experiment: In vivo expression level of Luciferase-mRNA delivered by intramuscular injection (bioluminescence imaging); details: mRNA-loaded nanoparticles, intramuscular (leg muscle), 5 μg Luciferase-mRNA, 6 hours
Procedure, shortened: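 LNPs prepared with cationic lipid analogues carrying 5 μg Luciferase-mRNA injected into leg muscle of 6-8 week-old C57BL/6 mice. D-Luciferin (3 mg, i.p.) given 6 h post-dose; bioluminescence imaged 10 min later as in vivo mRNA expression level.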

[3] = system: C57BL/6 mice; experiment: In vivo expression level of Luciferase-mRNA delivered by intravenous injection (bioluminescence imaging); details: mRNA-loaded nanoparticles, intravenous (tail vein), 5 μg Luciferase-mRNA, 6 hours
Procedure, shortened: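 Lipid nanoparticles carrying 5 μg Luciferase-mRNA given by tail-vein injection to 6-8-week-old C57BL/6 mice. At 6 h, 3 mg D-luciferin i.p. in PBS; bioluminescence imaged 10 min later as the expression read-out.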

[4] = system: C57BL/6 mice; experiment: In vivo expression level of Luciferase-mRNA delivered by tracheal injection (bioluminescence imaging); details: mRNA-loaded nanoparticles, 5 μg Luciferase-mRNA, 6 hours
Protocol: (§1) Luciferase-mRNA was used as an mRNA model; and the cationic lipid analogue A1I4R22C18-2 of Example 2 was used to prepare drug-loaded nanoparticles according to the method of Example 6.
(§2) 100 μL of nanoparticles containing 5 μg Luciferase-mRNA or the drug-loaded nanoparticles prepared above were tracheally injected into 6-8 week-old C57BL/6 mice, and 200 μL of 1×PBS solution containing 3 mg D-Luciferin potassium salt was intraperitoneally injected into the mice 6 hours later. After waiting for 10 min, an in vivo mRNA expression level was evaluated by bioluminescence imaging.

[5] = system: C57BL/6 mice; experiment: In vivo expression level of Luciferase-mRNA delivered by intraperitoneal injection (bioluminescence imaging); details: mRNA-loaded nanoparticles, 5 μg Luciferase-mRNA, 6 hours
Protocol: as §1
as §2, with “200” for “100”, “intraperitoneally” for “tracheally”, “minutes,” for “min,”, “level of the m-RNA” for “level”

With CCCCC/C=C\C/C=C\CCCCCCCC(=O)N(CCCN(CC)CC)C(C(=O)NCCCCCCCCCCCCCCCCCC)C(CC)CCCC (centres unmarked) [A4I18R3C18-2] the “Diameter of the nanoparticles” value [1] was 83 ± 9 nm, the PDI [1] was 0.12 and the Zeta potential [1] was −3.2 mV. For the same compound, the encapsulation efficiency [1] was 75.3%, the Local fluorescence intensity ([2]; compounds of Example 1) was 3.08E+07 and the Bioluminescence intensity ([3]; compounds of Example 1) was 2.29E+07.

In the case of CCCCC/C=C\C/C=C\CCCCCCCC(=O)N(CCO)C(C(=O)NCCN(C)CCNC(=O)C(C(C)C)N(CCO)C(=O)CCCCCCC/C=C\C/C=C\CCCCC)C(C)C (centres unmarked) [A1I4R22C18-2], the “Diameter of the nanoparticles” value [1] is reported as 133 ± 6 nm, the PDI [1] is reported as 0.17 and the Zeta potential [1] is reported as −5.5 mV. For the same compound, the encapsulation efficiency [1] was 62.1%, the Local fluorescence intensity ([2]; compounds of Example 2) was 2.69E+05 and the “Fluorescence intensity of spleen” value [4] was 2.54E+05. For the same compound, the “Fluorescence intensity of spleen” value ([3]; compounds of Example 2) was 1.47E+06 and the “Fluorescence intensity of spleen” value [5] was 6.48E+06.

With CCCCCCCCCCSSCCC(=O)N(CCO)C(C(=O)NCCN(CCNC(=O)C(C(C)C)N(CCO)C(=O)CCSSCCCCCCCCCC)CCNC(=O)C(C(C)C)N(CCO)C(=O)CCSSCCCCCCCCCC)C(C)C (centres unmarked) [A1I5R22S15] the “Diameter of the nanoparticles” value [1] was 144 ± 7 nm, the PDI [1] was 0.22 and the Zeta potential [1] was −7.2 mV. The encapsulation efficiency [1] was 65.4%, the Local fluorescence intensity ([2]; compounds of Example 3) was 1.50E+06 and the “Fluorescence intensity of spleen” value ([3]; compounds of Example 3) was 3.40E+06.

In the case of CCCCC/C=C\C/C=C\CCCCCCCC(=O)N(CCN(CCN(C(=O)CCCCCCC/C=C\C/C=C\CCCCC)C(C(=O)NCC(=O)OCC)C(C)C)CCN(C(=O)CCCCCCC/C=C\C/C=C\CCCCC)C(C(=O)NCC(=O)OCC)C(C)C)C(C(=O)NCC(=O)OCC)C(C)C (centres unmarked) [A1I32R47C18-2], the “Diameter of the nanoparticles” value [1] is reported as 150 ± 9 nm, the PDI [1] is reported as 0.21 and the Zeta potential [1] is reported as −3.1 mV. For the same compound, the encapsulation efficiency [1] was 60.5%, the Local fluorescence intensity ([2]; compounds of Example 5) was 3.68E+04 and the “Fluorescence intensity of spleen” value ([3]; compounds of Example 5) was 8.50E+03.
